Laboratory results reported in patent US4645747A, “Specific binding assay technique” (priority 1979, dated 1987).
Like-named read-outs stand apart in the source and are kept apart here.

Columns and labels:
RIA kit for estradiol = assay: Estradiol 17β (^3H) RIA, kit protocol vs solvent extraction (Example 5); format: binding; conditions: for % B/Bo Expt. A (kit): kit protocol; for % B/Bo Expt. B (solvent extn.): solvent extraction
Experimental: A commercially available (^3 H) RIA kit for estradiol supplied by Isopac was tested by the solvent extraction method as follows:
All kit components were prepared according to kit directions. One experiment (A) was carried out exactly according to the kit protocol. A second, parallel experiment (B) was performed according to kit protocol up to, and including, the incubation step. […] After phase separation (about 10 minutes) the upper solvent phase, containing the free estradiol, was transferred to scintillation vials to which 5 ml of scintillation liquid (Instagel II, trademark of Packard) were added and the radioactivity determined.

[1] = cited from earlier work
[2] = format: physicochemical; conditions: for % Estriol extracted, Tracer only: ^125I estriol, no unlabelled estriol; for % Estriol extracted, with 250 ng/ml: with 250 ng/ml unlabelled estriol
Excerpt: The choice of the preferred solvent for each system is made by carrying out a simple experiment in each case as illustrated hereinafter.

[3] = tested on: phenobarbitone antiserum R-66X; assay: Phenobarbitone RIA with solvent extraction (Example 6); format: binding; conditions: mean of duplicates; for % B/Bo MIBK: methyl isobutyl ketone; for % B/Bo TBME: tert-butyl methyl ether
Experimental: The components used for a phenobarbitone RIA were a (^3 H) phenobarbitone tracer (N.E.N), a phenobarbitone antiserum R-66X (Technion) and tris-maleate assay buffer (pH 7.3, 0.078M Tris, 0.035M maleic acid) containing 0.1% PVP (polyvinyl pyrrolidone).
The tracrer, 100 μl (approx. 10 nono Ci/tube) was added to test-tubes followed by the addition of 50 μl phenobarbitone standards and 100 μl of diluted antiserum. All test-tubes were incubated overnight at 4° C. After incubation, 0.5 ml of solvent (tert-butyl methyl ether, TBME in one experiment and, MIBK in a parallel experiment) were added to each assay tube and vortexed for 20-30 seconds. After phase separation on standing, the aqueous phase was transferred to scintillation vials for radioactivity determination. The following Table 4, summarizes mean values (of duplicates) expressed as % B/Bo.

[4] = tested on: anti-THC antiserum, R-41Va; assay: THC RIA with solvent extraction or charcoal separation (Example 7); format: binding; conditions: for % B/Bo Charcoal: dextran-coated charcoal
Experimental: An assay using the solvent extraction method was developed for tetrahydrocannabinol (THC) metabolites using a (^3 H)-THC tracer (Amersham). All assay components were prepared in tris-maleate buffer (pH 7.3) containing 0.2% PVP and 0.1% Triton X450 (trademark of Rohm and Haas). […]. The solvent, 500 μl, was added to the assay tubes and vortexed for 20-30 seconds. […]. The following Table 5 summarizes the results, expressed as % B/Bo for the three experiments.

C[C@]12CC[C@@H]3c4ccc(O)cc4CC[C@H]3[C@@H]1CC[C@@H]2O [Estradiol, Estradiol 17β]
% B/Bo Expt. A (kit) (RIA kit for estradiol; standard 25.0 pg/ml): 89.0%
% B/Bo Expt. B (solvent extn.) (RIA kit for estradiol; standard 25.0 pg/ml): 89.0%
% B/Bo Expt. A (kit) (RIA kit for estradiol; standard 50.0 pg/ml): 85.0%
% B/Bo Expt. B (solvent extn.) (RIA kit for estradiol; standard 50.0 pg/ml): 76.0%
% B/Bo Expt. A (kit) (RIA kit for estradiol; standard 100.0 pg/ml): 59.0%
% B/Bo Expt. B (solvent extn.) (RIA kit for estradiol; standard 100.0 pg/ml): 40.0%
% B/Bo Expt. A (kit) (RIA kit for estradiol; standard 200.0 pg/ml): 40.0%
% B/Bo Expt. B (solvent extn.) (RIA kit for estradiol; standard 200.0 pg/ml): 23.0%
% B/Bo Expt. A (kit) (RIA kit for estradiol; standard 400.0 pg/ml): 21.0%
% B/Bo Expt. B (solvent extn.) (RIA kit for estradiol; standard 400.0 pg/ml): 14.0%

CCOC(C)=O [Ethyl acetate, ethyl acetate]
% solubility in water ([1]; in water): 3.3%
% Estriol extracted, Tracer only [2]: 90-94%
% Estriol extracted, with 250 ng/ml [2]: 90-92%

CCC1(c2ccccc2)C(=O)NC(=O)NC1=O [Phenobarbitone, phenobarbitone]
% B/Bo MIBK ([3]; standard 5 ng/ml): 73.0%
% B/Bo TBME ([3]; standard 5 ng/ml): 96.5%
% B/Bo MIBK ([3]; standard 10 ng/ml): 63.0%
% B/Bo TBME ([3]; standard 10 ng/ml): 79.0%
% B/Bo MIBK ([3]; standard 25 ng/ml): 45.0%
% B/Bo TBME ([3]; standard 25 ng/ml): 52.0%
% B/Bo MIBK ([3]; standard 50 ng/ml): 30.0%
% B/Bo TBME ([3]; standard 50 ng/ml): 30.0%
% B/Bo MIBK ([3]; standard 100 ng/ml): 19.0%
% B/Bo TBME ([3]; standard 100 ng/ml): 23.0%

CC(=O)CC(C)C [Methyl isobutyl ketone, methyl isobutyl ketone]
% solubility in water ([1]; in water): 1.9%
% Estriol extracted, Tracer only [2]: 91-94%
% Estriol extracted, with 250 ng/ml [2]: 90-94%

CCCCCc1cc(O)c2c(c1)OC(C)(C)[C@@H]1CCC(C)=C[C@@H]21 [THC, tetrahydrocannabinol]
% B/Bo MIBK ([4]; standard 1 ng/ml): 98%
% B/Bo Charcoal ([4]; standard 1 ng/ml): 98%
% B/Bo t-amyl alcohol ([4]; standard 1 ng/ml): 90%
% B/Bo MIBK ([4]; standard 2 ng/ml): 84%
% B/Bo t-amyl alcohol ([4]; standard 2 ng/ml): 86%
% B/Bo MIBK ([4]; standard 4 ng/ml): 68%
% B/Bo Charcoal ([4]; standard 4 ng/ml): 86%
% B/Bo t-amyl alcohol ([4]; standard 4 ng/ml): 77%
% B/Bo MIBK ([4]; standard 10 ng/ml): 30%
% B/Bo Charcoal ([4]; standard 10 ng/ml): 55%
% B/Bo t-amyl alcohol ([4]; standard 10 ng/ml): 36%
% B/Bo MIBK ([4]; standard 20 ng/ml): 18%
% B/Bo Charcoal ([4]; standard 20 ng/ml): 32%
% B/Bo t-amyl alcohol ([4]; standard 20 ng/ml): 15%
% B/Bo MIBK ([4]; standard 40 ng/ml): 8%
% B/Bo Charcoal ([4]; standard 40 ng/ml): 21%
% B/Bo t-amyl alcohol ([4]; standard 40 ng/ml): 6%

CCN(CC)CC [Triethyl amine]
% Estriol extracted, Tracer only [2]: 86-91%
% Estriol extracted, with 250 ng/ml [2]: 86-90%

ClC(Cl)(Cl)Cl [Carbon tetrachloride, carbon tetrachloride]
% solubility in water ([1]; in water): 0.08%
% Estriol extracted, Tracer only [2]: 35-38%
% Estriol extracted, with 250 ng/ml [2]: 38-40%

ClCc1ccccc1 [Benzyl chloride]
% solubility in water ([1]; in water): 0.05%
% Estriol extracted, Tracer only [2]: 78-80%
% Estriol extracted, with 250 ng/ml [2]: 76-78%

ClCCl [Dichloromethane, dichloromethane]
% solubility in water ([1]; water): 2%
% Estriol extracted, Tracer only [2]: 45-47%
